Like-named read-outs stand apart in the source and are kept apart here.
What was measured:
[1] = test system: CHS1, CHS2, and CHS3 genes; assay: qRT-PCR gene expression; type: cell-based, S. cerevisiae; settings: 25 μg/mL, 16 hours
Description: WT yeast cells were grown to 10^5 CFU/mL in YPD medium and then treated with 25 μg/mL compounds or 0.25% DMSO for 16 hours at 30 °C. Then, the cells were collected by centrifugation at 1500 g for 5 min and washed twice with water. Total RNA was prepared using the Yeast RNA kit (OMEGA R6870-01, Norcross, GA, USA) and treated with DNase Ⅰ (TransGen GD201-01, Beijing, China) to remove genomic DNA. The resulting RNA was reverse-transcribed with the cDNA synthesis super-mix kit (TransGen AT311, Beijing, China). qRT-PCR was performed using Fast Universal SYBR Green Master (Rox, Roche, Mannheim, Gemany) and gene-specific primers (Table S1). The DNA level was measured using an Real-Time Quantitative Thermal Cycler (FTC-3000, Funglyn Biotech Inc, Toronto, Canada). The expression levels were correlated with the copy numbers used to amplify the gene to reach the threshold, then represented as the mean ± SEM relative to the cells treated with DMSO. One-way ANOVAs were performed to identify deviation from the mean.

chitin in WT yeast cells = assay: CFW staining of chitin, fluorescence microscopy; type: cell-based, S. cerevisiae; settings: 12.5 or 25 μg/mL, 3 or 5 hours, vs DMSO control
Description: (§1) WT S. cerevisiae and C. albicans ATCC10231 were grown to 10^5 CFU/mL in YPD medium and then treated with IMB-D10 (12.5 or 25 μg/mL), IMB-F4 (12.5 or 25 μg/mL), or 0.25% DMSO for 3 and 5 hours at 30 ℃. Cells were collected by centrifugation at 1500 g for 5 min and resuspended in PBS. Some cells were examined using 100 × / 1.25 oil immersion objective (DM2500, Leica) and analyzed by Leica las. Some cells were stained with 100 μg/mL Calcofluor White M2R (CFW, Sigma-Aldrich, St. Louis, MO, USA for 3 min and washed three times with water. Then, the cells were examined under the UV light for fluorescent signals.

[2] = test system: chitin level in C. albicans; assay: CFW staining of chitin, fluorescence microscopy; type: cell-based, Candida albicans; settings: IMB-D10 12.5 μg/mL or IMB-F4 25 μg/mL, 5 hours
Description: as §1

Chs2 = Chs2 (Saccharomyces cerevisiae, UniProt P14180); assay: Chitin synthase activity assay (WGA-coated plate); type: biochemical, S. cerevisiae; settings: membrane protein from WT yeast
Chs2, sequence (P14180 whole entry): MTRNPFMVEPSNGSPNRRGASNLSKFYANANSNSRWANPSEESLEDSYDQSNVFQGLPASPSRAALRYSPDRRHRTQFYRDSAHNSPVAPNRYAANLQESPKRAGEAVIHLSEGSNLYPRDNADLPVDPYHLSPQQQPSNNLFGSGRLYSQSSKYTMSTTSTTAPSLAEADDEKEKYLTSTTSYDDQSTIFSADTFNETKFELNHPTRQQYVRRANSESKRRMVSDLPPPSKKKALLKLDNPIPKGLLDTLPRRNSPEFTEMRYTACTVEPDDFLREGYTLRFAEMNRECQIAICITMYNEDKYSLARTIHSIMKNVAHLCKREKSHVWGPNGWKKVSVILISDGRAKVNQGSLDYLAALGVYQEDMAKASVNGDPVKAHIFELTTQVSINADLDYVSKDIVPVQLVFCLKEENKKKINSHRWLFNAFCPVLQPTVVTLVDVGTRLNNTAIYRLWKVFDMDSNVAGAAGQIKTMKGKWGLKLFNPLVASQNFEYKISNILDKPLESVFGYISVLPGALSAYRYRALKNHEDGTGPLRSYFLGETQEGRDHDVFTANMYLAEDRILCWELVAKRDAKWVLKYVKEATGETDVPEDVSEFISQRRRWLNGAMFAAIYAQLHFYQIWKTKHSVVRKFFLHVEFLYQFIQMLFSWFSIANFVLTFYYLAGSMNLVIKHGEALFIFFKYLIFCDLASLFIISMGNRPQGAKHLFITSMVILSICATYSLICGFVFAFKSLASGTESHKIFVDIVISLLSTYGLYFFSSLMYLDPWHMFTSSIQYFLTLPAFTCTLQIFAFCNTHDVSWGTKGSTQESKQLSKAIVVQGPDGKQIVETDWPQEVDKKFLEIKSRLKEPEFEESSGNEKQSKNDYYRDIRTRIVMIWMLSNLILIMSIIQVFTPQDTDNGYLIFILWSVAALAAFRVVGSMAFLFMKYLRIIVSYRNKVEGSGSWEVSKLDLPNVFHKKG
Description: The inhibitory effect of compounds IMB-D10 and IMB-F4, on the activity of chitin synthases 1, 2, and 3, was measured by the procedure, described previously. In brief, WT yeast cells were grown in YPD medium to OD600 1–2. The cells were sedimented at 1500 g for 15 min at 4 °C and washed once with water. Then, the cells were resuspended in cold 100 mM Tris-HCl (pH 7.5) buffer containing protease inhibitors, and broken by 10 cycles of vortexing with acid-washed glass beads (1 min each). The broken cells were centrifuged for 15 min at 1500g to eliminate cell wall and debris. One volume of supernatant was placed on 2 volumes of 10% w/w sucrose in 100 mM Tris-HCl pH 7.5 and centrifuged at 55,000 g for 2 hours. The pellet was resuspended in 50 mM Tris-HCl pH 7 and used as membrane protein of Chs3. For Chs1 and Chs2, the membrane protein was pretreated with 80 μg/mL trypsin for 30 min at 30 °C.
To assess the enzyme activity of Chs1, the assay mixture contained 15 μg membrane protein, 5 mM MgCl2, 32 mM Tris-maleate (pH6.5), 0.2% digitonin, 40 mM N-acetyl-glucosamine (GlcNAc), and 4 mM UDP-GlcNAc. For Chs2, the mixture contained 15 μg pretreated membrane protein, 1.6 mM CoCl2, 32 mM Tris-HCl (pH 8), 40 mM GlcNAc, and 4 mM UDP-GlcNAc. For Chs3, the mixture contained pretreated membrane protein 15 μg, 1.6 mM CoCl2, 5 mM NiCl2, 32 mM Tris-HCl (pH 8), 40 mM GlcNAc, and 4 mM UDP-GlcNAc. Different concentrations of IMB-D10 and IMB-F4 were added to the mixture, and the reaction without UDP-GlcNAc was used to measure background absorbance. The 96-well plate coated with 50 μg/mL wheat germ agglutinin (WGA) was washed three times with water, and the reaction mixture was added into the wells and incubated at 30 °C for 60 min. The reaction was stopped by 50 mM EDTA, and the plate was emptied and washed with a large volume of water, followed by the addition of 200 μL 0.5 μg/mL WGA-HRP and incubation for 5 min at room temperature. The plate was washed 5 times with running distilled water. Then, the Tetramethylbenzidine (TMB) reagent was added, and the optical density at 600 nm (OD600) was immediately detected with Multilabel Reader (Envision, PE, Pontyclun, UK). All reactions were performed in triplicate.

C. albicans ATCC10231 = assay: Growth inhibition, broth microdilution MIC; type: cell-based, Candida albicans
Description: The experiments were carried out using a broth microdilution protocol modified from the Clinical and Laboratory Standards Institute M-27A methods. WT S. cerevisiae and C. albicans were grown to mid-log phase in YPD medium. The cells were collected by centrifugation at 1500 g for 5 min and diluted with RPMI 1640 medium to the density of 1 × 10^4 CFU/mL. Then, the samples with various concentrations of compounds were dispensed at 0.2 mL/well in sterile 96-well microplates. The final concentrations of compounds ranged from 3.125 to 100 μg/mL with serial two-fold dilution. After incubation at 30 °C (S. cerevisiae) or 35 °C (C. albicans) for 24 hours, the minimal inhibitory concentration (MIC) was determined by measuring the optical density of the wells with cell cultures. The antifungal agent caspofungin was used as a positive control. All tests were performed in triplicate.

[3] = test system: WT S. cerevisiae strain BY4741; assay: MIC in compound library screening assay, WT yeast; type: cell-based; settings: WT BY4741, YPD, 30 °C, 24 hours, MIC90
Description: The compound library is a combination of synthetic compounds from Enamine (Kyiv, Ukraine) and Life Chemicals Inc. (Burlington, ON, Canada) and natural products from the Institute of Medicinal Biotechnology. We used WT, chs3∆, and fks1∆ yeast strains to screen new antifungal agents. The screening assays were performed in 96-well plates in a final volume of 200 μL. Fresh yeast cells (OD600 = 0.8) were diluted to 10^5 CFU/mL in YPD medium. We added 198 μL of diluted culture and 2 μL of compounds into each well, and the final concentration of compounds was 100 μg/mL with 1% DMSO. The yeast cells were incubated at 30 °C for 24 hours to assess the growth. For the compounds that inhibited the growth of all three yeast strains, they were serially diluted to determine the minimal inhibit concentration (MIC) with the same method. MIC endpoints were defined as the lowest concentration of drugs that cause a 90% decrease in growth compared to the drug-free control (MIC90).

| Compound | expression levels of CHS1, CHS2, and CHS3 genes [1] | CFW fluorescent signal around the cell wall and at the primary septum (chitin in WT yeast cells) | chitin level by CFW staining [2] | IC50 Chs2 (Chs2) | MIC (C. albicans ATCC10231) | MIC, WT [3] | MIC (C. albicans ATCC10231; Candida albicans, read-out: MIC) | MIC ([3]; Saccharomyces cerevisiae, read-out: MIC, WT) |
| --- | --- | --- | --- | --- | --- | --- | --- | --- |
| N-(2-(diethylamino) ethyl)-N-(7-hydroxy-4-methoxybenzo[d]thiazol -2-yl)-2-oxo-2H-chromene-3-carboxamide [IMB-D10] | did not decrease significantly | weaker fluorescent signal | decreased chitin level | 3.516 ± 1.35 µg/mL | 100 µg/mL | 50 µg/mL | – | – |
| COc1cc(OC)cc(C(=O)N(CCn2ccnc2)c2nc3ccc(OC)cc3s2)c1 [IMB-F4, N-(2-(1H-imidazol-1-yl)ethyl)-3,5-dimethoxy-N-(6-methoxybenzo[d]thiazol-2-yl)benzamide] | – | weaker fluorescent signal | decreased chitin level | – | – | – | > 100 µg/mL | > 100 µg/mL |
